Patent US4853209A, “Bone marrow suppressing agents” (The Dow Chemical Company, priority 1987, dated 1989)
Like-named read-outs stand apart in the source and are kept apart here.

Tests used:
[1] = Two hour rat biolocalization of radionuclide compositions (Tables I, II, III); type: in vivo; details: 2 h, average of five rats; for Bone/Blood Ratio / Bone/Muscle Ratio: from percent dose per gram; for % Dose in Blood / % Dose in Liver / % Dose in Muscle / % Dose in Skeleton / % Dose in Urine: tail vein
Experimental: A vial is used to prepare the sample for injection. The vial contains 210 mg EDTMP and 140 mg of NaOH such that addition of 6 ml of a 3×10^-4 M Ho-166 solution in 0.1M HCl gave a final pH in the range of 7-8, forming the Ho-166 EDTMP composition. After checking the pH, samples were drawn for injection into Sprague-Dawley rats. Rats were injected with 100 microliters of the solution via a tail vein. Two hours after the injection the rats were killed by cervical dislocation and dissected. The amount of radiation in each tissue was obtained by counting in a NaI well counter and comparing to standards.
The biolocalization of compositions prepared as described in Examples 7, 8, 9 and 10 was determined in rats.
The numbers given in Table I represent the average of the results of five rats per Example.
The biolocalization of the composition prepared as described in Example 12 was determined in rats.
The numbers given in Table II represent the average of the results of testing in three rats.
The biolocalization of compositions prepared as described in Examples 14 and 15 was determined in rats.
The numbers given in Table III represent the average of the results of five rats per Example.

bone marrow [2] = details: mouse about 20 g, 198 μCi, six days
Experimental: A mouse weighing about 20 g is injected with 198 μCi of a Ho-166 EDTMP composition. After six days, the animal is sacrificed and both femurs and the sternum removed. The same bones are also taken from a nontreated animal (control). The tissues are fixed using standard histochemical procedures and decalcified using formic acid. The tissues are embedded in paraffin, three micron sections cut, placed on glass slides, and stained with hematoxilyn and eosin.

[3] = rat
Experimental: Quantitative biodistributions in rats are obtained by injecting 50-100 microliters (μl) of the radionuclide composition into the tail vein of unanesthetized laboratory rats. After a given period of time, the rats are sacrificed by cervical dislocation and various organs and tissues removed. The tissue samples are then rinsed, blotted dry and weighed. The radioactivity in the tissue samples are measured using a NaI scintillation counter in order to determine the biolocalization of the radionuclide.
The numbers given for each Example, with respect to Tables I, II and III represent the percentage of the administered dose which localized in the indicated tissue. The ratio of radioactivity observed in bone relative to other organs was calculated based on the percent dose per gram in the bone and in the particular organ.
A series of rats was injected with the composition of Example 7 and sacrificed in groups of five at various intervals.

[4] = rabbit, three hours, averaged for 5 rabbits
Experimental: The composition of Example 7 was also evaluated in rabbits. The rabbits were injected with 100-250 microliters of the composition via a cannula placed in the marginal ear vein.
Three hours after injection, a blood sample was taken by cardiac puncture and the animal was then sacrificed by injection of a commercial euthanasia solution.

bone marrow [5] = details: normal beagles, various dose levels, weekly blood samples
Experimental: A series of normal beagles was treated with various dose levels of the composition of Example 7. Blood samples were obtained weekly with white blood cell and platelet counts taken to monitor for signs of bone marrow suppression.

O=P(O)(O)CN(CCN(CP(=O)(O)O)CP(=O)(O)O)CP(=O)(O)O.[159Gd] [Example 14]
Bone/Blood Ratio [1]: 305 | Bone/Muscle Ratio [1]: 577 | % Dose in Blood [1]: 0.15 % Dose | % Dose in Liver [1]: 0.25 % Dose | % Dose in Muscle [1]: 0.56 % Dose | % Dose in Skeleton [1]: 57 % Dose

O=P(O)(O)CN(CCN(CP(=O)(O)O)CP(=O)(O)O)CCN(CP(=O)(O)O)CP(=O)(O)O.[153Sm] [Example 8]
Bone/Blood Ratio [1]: 224 | Bone/Muscle Ratio [1]: 220 | % Dose in Blood [1]: 0.16 % Dose | % Dose in Liver [1]: 0.27 % Dose | % Dose in Skeleton [1]: 30 % Dose | % Dose in Urine [1]: 74 % Dose

O=P(O)(O)CN(CCN(CP(=O)(O)O)CP(=O)(O)O)CP(=O)(O)O.[166Ho] [Example 12]
suppression of the marrow (bone marrow [2]): suppression of the marrow | density of hemapoetic stem cells in marrow (bone marrow [2]; vs nontreated control): significantly lower density of hemapoetic stem cells | number of red blood cells in marrow (bone marrow [2]; vs nontreated control): significantly higher number of red blood cells

O=P(O)(O)CN(CCN(CCN(CP(=O)(O)O)CP(=O)(O)O)CCN(CP(=O)(O)O)CP(=O)(O)O)CP(=O)(O)O.[153Sm] [Example 10]
Bone/Blood Ratio [1]: 80 | Bone/Muscle Ratio [1]: 410 | % Dose in Blood [1]: 0.25 % Dose | % Dose in Liver [1]: 0.18 % Dose | % Dose in Skeleton [1]: 28 % Dose | % Dose in Urine [1]: 65 % Dose

O=P(O)(O)CN(CCO)CCN(CP(=O)(O)O)CP(=O)(O)O.[153Sm] [Example 9]
Bone/Blood Ratio [1]: 1300 | Bone/Muscle Ratio [1]: 1300 | % Dose in Blood [1]: 0.035 % Dose | % Dose in Liver [1]: 0.45 % Dose | % Dose in Skeleton [1]: 57 % Dose | % Dose in Urine [1]: 50 % Dose

O=P(O)(O)CN(CCN(CP(=O)(O)O)CP(=O)(O)O)CP(=O)(O)O.[153Sm] [Example 7]
blood clearance [3]: rapid blood clearance | uptake in bone [3]: rapid uptake in bone | Bone/Blood ([3]; 1 Hr): 120 | Bone/Muscle ([3]; 1 Hr): 300 | Percent of the Administered Dose, Blood ([3]; 1 Hr): 0.5% of the Administered Dose | Percent of the Administered Dose, Kidneys ([3]; 1 Hr): 0.47% of the Administered Dose | Percent of the Administered Dose, Liver ([3]; 1 Hr): 0.32% of the Administered Dose | Percent of the Administered Dose, Skeleton ([3]; 1 Hr): 58% of the Administered Dose | Percent of the Administered Dose, Urine ([3]; 1 Hr): 47% of the Administered Dose | Bone/Blood ([3]; 2 Hrs): 1800 | Bone/Muscle ([3]; 2 Hrs): 1500 | Percent of the Administered Dose, Blood ([3]; 2 Hrs): 0.03% of the Administered Dose | Percent of the Administered Dose, Kidneys ([3]; 2 Hrs): 0.25% of the Administered Dose | Percent of the Administered Dose, Liver ([3]; 2 Hrs): 0.25% of the Administered Dose | Percent of the Administered Dose, Skeleton ([3]; 2 Hrs): 58% of the Administered Dose | Percent of the Administered Dose, Urine ([3]; 2 Hrs): 49% of the Administered Dose | Bone/Blood ([3]; 5 Hrs): 4200 | Bone/Muscle ([3]; 5 Hrs): 3600 | Percent of the Administered Dose, Blood ([3]; 5 Hrs): 0.008% of the Administered Dose | Percent of the Administered Dose, Kidneys ([3]; 5 Hrs): 0.36% of the Administered Dose | Percent of the Administered Dose, Liver ([3]; 5 Hrs): 0.37% of the Administered Dose | Percent of the Administered Dose, Skeleton ([3]; 5 Hrs): 59% of the Administered Dose | Percent of the Administered Dose, Urine ([3]; 5 Hrs): 46% of the Administered Dose | Bone/Blood ([3]; 15 Min): 7 | Bone/Muscle ([3]; 15 Min): 30 | Percent of the Administered Dose, Blood ([3]; 15 Min): 5.9% of the Administered Dose | Percent of the Administered Dose, Kidneys ([3]; 15 Min): 1.745% of the Administered Dose | Percent of the Administered Dose, Liver ([3]; 15 Min): 0.96% of the Administered Dose | Percent of the Administered Dose, Skeleton ([3]; 15 Min): 48% of the Administered Dose | Percent of the Administered Dose, Urine ([3]; 15 Min): 28% of the Administered Dose | Bone/Blood ([3]; 24 Hrs): 6700 | Bone/Muscle ([3]; 24 Hrs): 2400 | Percent of the Administered Dose, Blood ([3]; 24 Hrs): 0.007% of the Administered Dose | Percent of the Administered Dose, Kidneys ([3]; 24 Hrs): 0.25% of the Administered Dose | Percent of the Administered Dose, Liver ([3]; 24 Hrs): 0.35% of the Administered Dose | Percent of the Administered Dose, Skeleton ([3]; 24 Hrs): 52% of the Administered Dose | Percent of the Administered Dose, Urine ([3]; 24 Hrs): 55% of the Administered Dose | Bone/Blood ([3]; 30 Min): 20 | Bone/Muscle ([3]; 30 Min): 70 | Percent of the Administered Dose, Blood ([3]; 30 Min): 2.3% of the Administered Dose | Percent of the Administered Dose, Kidneys ([3]; 30 Min): 0.805% of the Administered Dose | Percent of the Administered Dose, Liver ([3]; 30 Min): 0.53% of the Administered Dose | Percent of the Administered Dose, Skeleton ([3]; 30 Min): 53% of the Administered Dose | Percent of the Administered Dose, Urine ([3]; 30 Min): 42% of the Administered Dose | Bone/Blood ([3]; 48 Hrs): 8200 | Bone/Muscle ([3]; 48 Hrs): 2800 | Percent of the Administered Dose, Blood ([3]; 48 Hrs): 0.006% of the Administered Dose | Percent of the Administered Dose, Kidneys ([3]; 48 Hrs): 0.29% of the Administered Dose | Percent of the Administered Dose, Liver ([3]; 48 Hrs): 0.46% of the Administered Dose | Percent of the Administered Dose, Skeleton ([3]; 48 Hrs): 60% of the Administered Dose | Percent of the Administered Dose, Urine ([3]; 48 Hrs): 50% of the Administered Dose | Bone/Blood ([3]; 72 Hrs): 7800 | Bone/Muscle ([3]; 72 Hrs): 3400 | Percent of the Administered Dose, Blood ([3]; 72 Hrs): 0.006% of the Administered Dose | Percent of the Administered Dose, Kidneys ([3]; 72 Hrs): 0.22% of the Administered Dose | Percent of the Administered Dose, Liver ([3]; 72 Hrs): 0.49% of the Administered Dose | Percent of the Administered Dose, Skeleton ([3]; 72 Hrs): 57% of the Administered Dose | Percent of the Administered Dose, Urine ([3]; 72 Hrs): 53% of the Administered Dose | clearance of the radioactivity from the skeletal system ([3]; throughout the course of the experiment): no significant clearance of the radioactivity from the skeletal system | % Dose in Blood ([4]; marginal ear vein): 0.12 % Dose | % Dose in Liver ([4]; marginal ear vein): 0.95 % Dose | % Dose in Skeleton ([4]; marginal ear vein): 66 % Dose | % Dose in Urine ([4]; marginal ear vein, 180 min): 34 % Dose | Bone/Blood Ratio [4]: 900 | Bone/Muscle Ratio [4]: 1200 | platelet count (bone marrow [5]): dose dependent reduction | white blood cell count (bone marrow [5]): dose dependent reduction | Bone/Blood Ratio [1]: 1800 | Bone/Muscle Ratio [1]: 1500 | % Dose in Blood [1]: 0.032 % Dose | % Dose in Liver [1]: 0.25 % Dose | % Dose in Skeleton [1]: 58 % Dose | % Dose in Urine [1]: 49 % Dose

O=P(O)(O)CN(CCO)CCN(CP(=O)(O)O)CP(=O)(O)O.[159Gd] [Example 15]
Bone/Blood Ratio [1]: 335 | Bone/Muscle Ratio [1]: 548 | % Dose in Blood [1]: 0.14 % Dose | % Dose in Liver [1]: 0.57 % Dose | % Dose in Muscle [1]: 0.76 % Dose | % Dose in Skeleton [1]: 60 % Dose
